In one series the target is T1, GLP-1R (Homo sapiens, UniProt P43220).
T1 construct: host or cells: CRE-bla CHO-K1
The series can be described thus: EC20 GLP-1(9-36) PAM cAMP assay: dose response of compound in the presence of fixed concentration of GLP-1(9-36). It is filed as cell-based. The following applies: compound dose response with fixed GLP-1(9-36), GLP-1R CRE-bla CHO-K1 cells; for EC20 GLP-1 (9-36) PAM Activity max cAMP: Emax as total cAMP; for EC50: cAMP. On the procedure:
EC20GLP-1(9-36) PAM cAMP Assay: Dose Response of Compound in the Presence of Fixed Concentration of GLP-1 (9-36)
GLP-1R CRE-bla CHO-K1 cells were seeded into 384-well white flat bottom plates at 10,000 cells/well/20 μL growth medium (DMEM-High glucose, 10% dialyzed FBS, 0.1 mM NEAA, 25 mM Hepes, 100 U/mL penicillin/100 μg/mL streptomycin, 5 μg/mL Blasticidin, 600 μg/mL Hygromycin) and incubated for 18 h at 37° C. in 5% CO2. Growth medium was replaced with 12 μL assay buffer (Hanks Balanced Salt solution, 10 mM Hepes, 0.1% BSA, pH7.4). A 5× compound dose response curve (12-point) was generated in assay buffer containing 1.5 mM IBMX, 12.5% DMSO. GLP-1(9-36) was diluted to 4.2 μM in assay buffer containing 1.5 mM IBMX and 12.5% DMSO. The 5× compound dose response was added (3 μL), followed by 0.5 μL of GLP-1(9-36) and cells were incubated for 30 min at 37° C. Direct detection of cAMP was carried out using DiscoveRx HitHunter cAMP kit according to manufacturer's instructions and luminescence was read using a SpectraMax M5 plate reader. Luminescence was converted to total cAMP using a cAMP standard curve and data was analyzed by non-linear regression to determine the EC50 and Emax.

Series [1] is described as follows: Determination of absolute oral bioavailability in rats. It is filed as in vivo. Particulars: rat, plasma, fasted female Sprague-Dawley rats, intravenous 1 mg/kg. The procedure:
Determination of Absolute Oral Bioavailability in Rats
All pharmacokinetic studies were conducted in fasted female Sprague-Dawely rats (Simonsen Laboratories or Harlan Laboratories). Rats were housed in an ALAAC accredited facility and the research was approved by the facilities Institutional Animal Care and Use Committee (IACUC). The animals were acclimated to the laboratory for at least 48 h prior to initiation of experiments.
Compounds were formulated in 20% hydroxy beta cyclodextrin or 20% captisol and 80%-25 mM NaPO4 Buffer (pH 8) (intravenous infusion), or 5% DMSO/5% Tween20 and 90% water (oral gavage or intraperitoneal injection). The concentration of the dosing solutions was verified by HPLC-UV. For intravenous dosing, compounds were administered into the tail vein to manually restrained animals (n=3 rats/compound). The intravenous dose was 1 mg/kg. Oral dosing was by gavage using a standard stainless steel gavage needle (n=2-4 rats/compound). The oral solution dose was 5 mg/kg. For compounds 1 and 3, the oral solution dose was 30 mg/kg. For both routes of administration, blood was collected into BD Microtainer tubes with Dipotassium EDTA as the anticoagulantant eight time-points after dosing with the final sample drawn 24 h post dose Plasma was separated by centrifugation and transferred to a polypropylene 96-well plate and kept at 4° C. until analysis.
Proteins were precipitated by adding 150 μL acetonitrile to 50 μL of plasma. Plates were mixed for 1 min on a plate shaker to facilitate protein precipitation and then centrifuged at 3,000 rpm for 10 min to pellet protein. The supernatant was transferred to a clean plate and centrifuged at 3,000 rpm for 10 min to pellet any remaining solid material prior to LC/MS/MS analysis. Calibration curve standards were prepared by spiking 54 compound stock in DMSO into rat plasma from untreated animals. An eight point standard curve spanning a range of 0.14 nM to 300 nM was included with each bio-analytical run. The standards were processed identically to the rat pharmacokinetic samples.
Concentrations in the rat pharmacokinetic samples were determined using a standardized HPLC-LC/MS/MS method relative to the eight point standard curve. The system consisted of a Leap CTC Pal injector, Agilent 1200 HPLC with binary pump coupled with an Applied Biosystems 4000 QTrap. Compounds were chromatographed on a Phenomenex Luna C8(2) 20×2 mm 2 um Mercury Cartridge with Security Guard. A gradient method was used with mobile phase A consisting of 0.1% formic acid in water and mobile phase B consisting of 0.1% formic acid in acetonitrile at flow rates varying from 0.7 to 0.8 mL/min. Ions were generated in positive ionization mode using an electrospray ionization (ESI) interface. Multiple reaction monitoring (MRM) methods were developed specific to each compound. The heated nebulizer was set at 500° C. with a nebulizer current of 5.1 μA. Collision energies used to generate daughter ions ranged between 29 and 80 V. Peak area obtained from MRM of the mass transitions specific for each compound were used for quantification. The limit of quantification of the method was typically 1.2 nM. Data were collected and analyzed using Analyst software version 1.5.1. Blood concentration versus time data were analyzed using non-compartmental methods (WinNonlin Phoenix version 6.2; model 200 for oral or intraperitoneal dosing and model 202 for intravenous infusion). Absolute oral bioavailability (%) was calculated using the following expression: (Oral AUC×IV Dose)/(IV AUC×Oral Dose)×100.

The mark [2] stands for this setting: oral solution 30 mg/kg (compounds 1 and 3).

The source of these data is patent publication US9700543B2, “GLP-1 receptor stabilizers and modulators” (Celgene International II SÀRL, priority 2011, dated 2017).

T1 sequence (P43220 24-463): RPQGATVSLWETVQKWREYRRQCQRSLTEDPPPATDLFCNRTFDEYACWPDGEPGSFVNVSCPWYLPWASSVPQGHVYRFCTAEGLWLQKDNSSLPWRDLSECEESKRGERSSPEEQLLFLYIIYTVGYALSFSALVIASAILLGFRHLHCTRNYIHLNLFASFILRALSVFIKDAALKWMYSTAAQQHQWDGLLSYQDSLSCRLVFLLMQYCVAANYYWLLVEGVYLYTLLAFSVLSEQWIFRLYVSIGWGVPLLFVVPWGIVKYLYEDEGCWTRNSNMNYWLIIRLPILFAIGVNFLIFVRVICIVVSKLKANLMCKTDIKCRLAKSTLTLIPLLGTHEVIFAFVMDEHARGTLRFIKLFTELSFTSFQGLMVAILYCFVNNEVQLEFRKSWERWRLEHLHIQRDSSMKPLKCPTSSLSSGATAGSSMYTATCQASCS
T1 sequence (P01275 100-127 partner limits assumed): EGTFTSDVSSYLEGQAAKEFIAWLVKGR

Usually EC50 stands for the midpoint of the concentration-response curve. A word on the bioavailability: it is the share of a dose that reaches the circulation, judged against a reference dose that is usually intravenous. High values mean good availability, low ones poor availability. For the compound `CCCCCCCOc1ccc(C(=O)Oc2ccc(CN(CC(=O)O)C(=O)c3ccc(NC(=O)Cc4ccc(OC)cc4)cc3)cc2)cc1` [Compound 1, 2-(N-(4-((4-(heptyloxy)benzoyl)oxy)benzyl)-4-(2-(4-methoxyphenyl)acetamido)benzamido)-acetic acid], at GLP-1R, the “EC20 GLP-1 (9-36) PAM Activity max cAMP” value is listed as 240 nM and the EC50 came out at 3600 nM. The compound further had a bioavailability in series [1] (setting [2]) below 1%.
On the same counts, the results for `CCCCCCCOc1ccc(C(=O)Oc2ccc(CN(CC(=O)O)C(=O)c3ccc(NC(=O)Cc4ccc(OC)cc4C(F)(F)F)cc3)cc2)cc1` [Compound 3, 2-(N-(4-((4-(heptyloxy)benzoyl)oxy)benzyl)-4-(2-(4-methoxy-2-(trifluoromethyl)phenyl)-acetamido)benzamido)acetic acid] are 284 nM, 1300 nM and below 1%.
As for `CCCCCCCOc1ccc(C(=O)Oc2ccc(CN(CC(=O)O)C(=O)c3ccc(NC(=O)Cc4ccc(C)c(OC)c4)cc3)cc2)cc1` [Compound 4, 2-(N-(4-((4-(heptyloxy)benzoyl)oxy)benzyl)-4-(2-(3-methoxy-4-methylphenyl)-acetamido)benzamido)acetic acid], on GLP-1R, the “EC20 GLP-1 (9-36) PAM Activity max cAMP” value was 371 nM and the EC50 came to 2400 nM.
On the same counts, the results for `CCCCCCCCCOc1ccc(C(=O)Oc2ccc(CN(CC(=O)O)C(=O)c3ccc(NC(=O)Cc4ccc(OC)cc4)cc3)cc2)cc1` [Compound 16, 2-(4-(2-(4-methoxyphenyl)acetamido)-N-(4-((4-(nonyloxy)benzoyl)oxy)benzyl)benzamido) acetic acid] are 293 nM and 1200 nM.
The corresponding values for `CCCCCCCCOc1ccc(C(=O)Oc2ccc(CN(CC(=O)O)C(=O)c3ccc(NC(=O)Cc4ccc(OC)cc4)cc3)cc2)cc1` [Compound 17, 2-(4-(2-(4-methoxyphenyl)acetamido)-N-(4-((4-(octyloxy)benzoyl)oxy)benzyl)benzamido) acetic acid] are 281 nM and 1500 nM.
`CCCCCCOc1ccc(C(=O)Oc2ccc(CN(CC(=O)O)C(=O)c3ccc(NC(=O)Cc4ccc(OC)cc4)cc3)cc2)cc1` [Compound 18, 2-(N-(4-((4-(hexyloxy)benzoyl)oxy)benzyl)-4-(2-(4-methoxyphenyl)acetamido)benzamido) acetic acid]: at GLP-1R, the “EC20 GLP-1 (9-36) PAM Activity max cAMP” value came out at 182 nM and the EC50 amounted to 3100 nM.
On the same counts, the results for `COc1ccc(CC(=O)Nc2ccc(C(=O)N(CC(=O)O)Cc3ccc(OC(=O)c4ccc(C5CCCCC5)cc4)cc3)cc2)cc1` [Compound 39, 2-(N-(4-((4-cyclohexylbenzoyl)oxy)benzyl)-4-(2-(4-methoxyphenyl)acetamido)benzamido) acetic acid] are 273 nM and 2500 nM.
With `CCCCCCCCc1ccc(C(=O)Oc2ccc(CN(CC(=O)O)C(=O)c3ccc(NC(=O)Cc4ccc(OC)cc4)cc3)cc2)cc1` [Compound 40, 2-(4-(2-(4-methoxyphenyl)acetamido)-N-(4-((4-octylbenzoyl)oxy)benzyl)benzamido)acetic acid], on GLP-1R, the “EC20 GLP-1 (9-36) PAM Activity max cAMP” value is on record as 397 nM and the EC50 is 2100 nM.
As to `COc1ccc(CC(=O)Nc2ccc(C(=O)N(CC(=O)O)Cc3ccc(OC(=O)c4ccc(OCCC(C)C)cc4)cc3)cc2)cc1` [Compound 46, 2-(N-(4-((4-(isopentyloxy)benzoyl)oxy)benzyl)-4-(2-(4-methoxyphenyl)acetamido)benzamido) acetic acid], at GLP-1R, the “EC20 GLP-1 (9-36) PAM Activity max cAMP” value is given as 252 nM and the concentration for a half-maximal effect (EC50) was determined as 7000 nM.
For the compound `COc1ccc(CC(=O)Nc2ccc(C(=O)N(CC(=O)O)Cc3ccc(OC(=O)c4ccc(-c5ccc(C)cc5)cc4)cc3)cc2)c(C(F)(F)F)c1` [Compound 192, 2-(4-(2-(4-methoxy-2-(trifluoromethyl)phenyl)acetamido)-N-(4-((4′-methyl-[1,1′-biphenyl]-4-carbonyl)oxy)benzyl)benzamido)acetic acid], on GLP-1R, the “EC20 GLP-1 (9-36) PAM Activity max cAMP” value is recorded as 248 nM and the EC50 was 1300 nM.
On the same counts, the results for `COc1ccc(CC(=O)Nc2ccc(C(=O)N(CC(=O)O)Cc3ccc(OC(=O)c4ccc(-c5ccc(C)cc5)cc4)cc3)c(OC)c2)c(C(F)(F)F)c1` [Compound 314, 2-(2-methoxy-4-(2-(4-methoxy-2-(trifluoromethyl)phenyl)acetamido)-N-(4-((4′-methyl-[1,1′-biphenyl]-4-carbonyl)oxy)benzyl)benzamido)acetic acid] are 307 nM and 500 nM.
For `COc1ccc(CC(=O)Nc2ccc(C(=O)N(CC(=O)O)Cc3ccc(-c4noc(-c5ccc(-c6ccc(C)cc6)cc5)n4)cc3)cc2)c(C(F)(F)F)c1` [Compound 354, 2-(4-(2-(4-methoxy-2-(trifluoromethyl)phenyl)acetamido)-N-(4-(5-(4′-methyl-[1,1′-biphenyl]-4-yl)-1,2,4-oxadiazol-3-yl)benzyl)benzamido)acetic acid], on GLP-1R, the “EC20 GLP-1 (9-36) PAM Activity max cAMP” value was found to be 297 nM and the EC50 amounted to 300 nM. The compound also had a bioavailability in series [1] (oral solution 5 mg/kg) of 2%.
On the same counts, the results for `COc1ccc(CC(=O)Nc2ccc(C(=O)N(CC(=O)O)Cc3ccc(-c4noc(-c5ccc(C)cc5)n4)cc3)cc2)c(C(F)(F)F)c1` [Compound 355, 2-(4-(2-(4-methoxy-2-(trifluoromethyl)phenyl)acetamido)-N-(4-(5-(p-tolyl)-1,2,4-oxadiazol-3-yl)benzyl)benzamido)acetic acid] are 266 nM, 2900 nM and 2%.
The corresponding values for `COc1ccc(CC(=O)Nc2ccc(C(=O)N(CC(=O)O)Cc3ccc(-c4nc(-c5ccc(-c6ccc(C)cc6)cc5)co4)cc3)cc2)c(C(F)(F)F)c1` [Compound 360, 2-(4-(2-(4-methoxy-2-(trifluoromethyl)phenyl)acetamido)-N-(4-(4-(4′-methyl-[1,1′-biphenyl]-4-yl)oxazol-2-yl)benzyl)benzamido)acetic acid] are 290 nM, 500 nM and 2%.
Regarding `COc1ccc(CC(=O)Nc2ccc(C(=O)N(CC(=O)O)Cc3ccc(-c4n[nH]c(-c5ccc(-c6ccc(C)cc6)cc5)n4)cc3)cc2)c(C(F)(F)F)c1` [Compound 361, 2-(4-(2-(4-methoxy-2-(trifluoromethyl)phenyl)acetamido)-N-(4-(5-(4′-methyl-[1,1′-biphenyl]-4-yl)-1H-1,2,4-triazol-3-yl)benzyl)benzamido)acetic acid], at GLP-1R, the “EC20 GLP-1 (9-36) PAM Activity max cAMP” value turned out to be 234 nM and the EC50 stood at 2700 nM.
